Some test systems named below: SNB-19 CNS; HOP-92 NSCLC; IGROV1 ovarian; MOLT-4 leukemia; NCI-H226 lung; SN12C renal; RXF 393 renal; BT-549 breast; PC-3 prostate; MCF7 breast.
Holding throughout (assay): growth of human tumour cells (NCI), 48 h

Several values for one entry are separate records, joined by “and”; a condition that tells them apart may be missing. Identical values can stand only once.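 In this assay, cells in 96-well plates receive the compound at five concentrations for 48 hours. Endpoints are linearly interpolated between the surrounding concentrations. Here, GI50 denotes the concentration required for 50% inhibition of growth. TGI: concentration producing complete growth inhibition.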 Bounds are passed on as bounds.

For `O=C(Nc1ccc([N+](=O)[O-])cc1C(=O)O)c1ccc([N+](=O)[O-])cc1`, the TGI in the experiment with SNB-19 CNS is above 100 µM; in the experiment on HOP-92 NSCLC, 36.6 µM; with IGROV1 ovarian, above 100 µM; in the experiment on MOLT-4 leukemia, 31.4 µM; in the experiment with NCI-H226 lung, 91.6 µM; with SN12C renal, above 100 µM.
Regarding `CCC[CH2][Sn]1([CH2]CCC)[O]C(=O)c2cccc(OC)c2[O]1`, the GI50 was 0.799 µM with SNB-19 CNS; below 0.0456 µM in the experiment on HOP-92 NSCLC; 0.755 µM in the experiment with IGROV1 ovarian; 0.217 µM in the experiment on MOLT-4 leukemia; 1.63 µM in the experiment on NCI-H226 lung; 0.47 µM in the experiment with SN12C renal. Further, the TGI came out at 2.13 µM with SNB-19 CNS; 0.486 µM in the experiment on HOP-92 NSCLC; 2.15 µM in the experiment on IGROV1 ovarian; 1.36 µM in the experiment on MOLT-4 leukemia; 3.04 µM in the experiment on NCI-H226 lung; 1.71 µM with SN12C renal.
Take `O=C1Nc2ccccc2/C1=C/c1cn(C(=O)c2c(Cl)cccc2Cl)c2ccccc12`: the GI50 in the experiment with SNB-19 CNS was 7.32 µM; in the experiment on HOP-92 NSCLC, 1.54 µM; in the experiment on RXF 393 renal, 4.14 µM; with MOLT-4 leukemia, 2.82 µM; with NCI-H226 lung it was 7.48 µM; in the experiment with BT-549 breast, 2.4 µM. The GI50 in the experiment on SN12C renal was 4 µM; in the experiment on PC-3 prostate, 2.39 µM. For the same molecule, the TGI was above 100 µM with SNB-19 CNS; 6.33 µM with HOP-92 NSCLC; 16.6 µM with RXF 393 renal; above 100 µM with MOLT-4 leukemia; 27 µM in the experiment on NCI-H226 lung; 8.95 µM with BT-549 breast. In addition, the results for the TGI with SN12C renal and with PC-3 prostate were 19.3 µM and 11.2 µM, respectively.
With `COCOCc1cc(OCc2ccccc2)c(OC)cc1Br`, the TGI in the experiment on SNB-19 CNS, with HOP-92 NSCLC, in the experiment on RXF 393 renal, in the experiment with IGROV1 ovarian and with SN12C renal was above 100 µM in each case.
With `CN(C)c1ccc(/C=C/c2ccnc3ccccc23)cc1N`, the TGI with MCF7 breast was 8.29 µM; in the experiment on SNB-19 CNS, 28.5 µM; in the experiment on HOP-92 NSCLC it was 5.87 µM; in the experiment on MOLT-4 leukemia, 25.5 µM; in the experiment on NCI-H226 lung, 36.5 µM; with SN12C renal it was 34.4 µM. Moreover, in the experiment with PC-3 prostate, the TGI came out at 22 µM.
Regarding `O=C(CC/C(CC(=O)c1ccc(Cl)cc1)=N/O)Nc1ccc(Cl)c(Cl)c1`, the TGI with SNB-19 CNS, with HOP-92 NSCLC, in the experiment on IGROV1 ovarian, with MOLT-4 leukemia, with NCI-H226 lung and in the experiment with SN12C renal was above 100 µM in each case.
As to `C/C=C(\CCC1NCCc2c1[nH]c1ccccc21)[Si](C)(C)C` (centres undefined), the GI50 in the experiment on SNB-19 CNS was 15.4 µM and 7.22 µM; in the experiment on HOP-92 NSCLC, 5.2 µM and 2.56 µM; in the experiment with IGROV1 ovarian it was 11.9 µM and 4 µM. Also, the TGI with SNB-19 CNS was 30 µM and 22 µM; in the experiment with HOP-92 NSCLC, 12.3 µM and 8.5 µM; in the experiment on RXF 393 renal, 17.6 µM and 2.53 µM; in the experiment with IGROV1 ovarian, 16.6 µM and 12.6 µM; with MOLT-4 leukemia, 13.8 µM and 8.98 µM; with NCI-H226 lung it was 18.6 µM and 21.6 µM. Moreover, the TGI was 23.2 µM in the experiment on BT-549 breast; 11.8 µM and 10.4 µM with SN12C renal; 16.1 µM in the experiment with PC-3 prostate.
Consider `COc1ccc(NC(=O)COC(=O)c2cccc3c(=O)c4ccccc4[nH]c23)cc1`, for which the TGI with SNB-19 CNS is above 100 µM; with HOP-92 NSCLC, 58.9 µM; with RXF 393 renal it was 35.5 µM; in the experiment on IGROV1 ovarian it was 91.3 µM; in the experiment with MOLT-4 leukemia it was 33.7 µM; with NCI-H226 lung, 44.6 µM. Moreover, the TGI in the experiment with SN12C renal was found to be 92.8 µM.
With `CCOP(=O)(OCC)/C(C#N)=C/c1ccc[nH]1`, the TGI with SNB-19 CNS, in the experiment on HOP-92 NSCLC, in the experiment on RXF 393 renal, in the experiment on MOLT-4 leukemia, in the experiment on NCI-H226 lung and in the experiment with SN12C renal was above 100 µM in each case.
On to `COc1cc2c3c(n(CCCNC(=O)OCC4c5ccccc5-c5ccccc54)c(=O)c2cc1OC)-c1cc2c(cc1C3=O)OCO2`, for which the GI50 with MCF7 breast is 7.62 µM; with SNB-19 CNS, above 76.4 µM; with HOP-92 NSCLC, 48.8 µM; in the experiment with RXF 393 renal it was 20.1 µM; in the experiment with IGROV1 ovarian, above 100 µM; in the experiment on MOLT-4 leukemia, 8.07 µM. In addition, the GI50 in the experiment with NCI-H226 lung, in the experiment with SN12C renal and in the experiment on PC-3 prostate was above 100 µM throughout. The TGI was above 100 µM in the experiment on MCF7 breast; above 100 µM with SNB-19 CNS; above 100 µM in the experiment with HOP-92 NSCLC; above 73.9 µM with RXF 393 renal; above 100 µM with IGROV1 ovarian; above 34.6 µM in the experiment with MOLT-4 leukemia. Also, the TGI in the experiment on NCI-H226 lung, in the experiment with SN12C renal and in the experiment with PC-3 prostate was above 100 µM throughout.
Regarding `O=C1c2cccc3cccc(c23)C(=O)N1CCCCN1CCN(CCCCOc2ccc(-c3nc4ccc(N5CCOCC5)cc4[nH]3)cc2)CC1`, the GI50 in the experiment with MCF7 breast is above 100 µM; in the experiment on SNB-19 CNS, above 100 µM; in the experiment on HOP-92 NSCLC, above 100 µM; in the experiment on IGROV1 ovarian it was 61.9 µM; in the experiment on MOLT-4 leukemia, 3.76 µM; in the experiment on NCI-H226 lung it was above 100 µM. Moreover, the GI50 in the experiment with BT-549 breast was 35.4 µM. Besides, the TGI in the experiment with MCF7 breast, in the experiment on SNB-19 CNS, with HOP-92 NSCLC, with IGROV1 ovarian, with MOLT-4 leukemia and in the experiment on NCI-H226 lung was above 100 µM in each case. Also, in the experiment on BT-549 breast, the TGI is above 100 µM.
As for `CCOCC(=O)N[C@H]1CCc2cc(OC(=O)COCC)c(OC)c(OC)c2-c2ccc(SC)c(=O)cc21`, the TGI in the experiment with MCF7 breast is above 100 µM; with SNB-19 CNS, above 100 µM; in the experiment with HOP-92 NSCLC, 0.08 µM; with RXF 393 renal, above 100 µM; in the experiment on IGROV1 ovarian it was above 100 µM; with MOLT-4 leukemia it was above 100 µM. The TGI in the experiment on NCI-H226 lung is 0.0917 µM and 0.0893 µM; in the experiment with SN12C renal, above 100 µM. The GI50 in the experiment on SNB-19 CNS is 0.0283 µM; in the experiment on IGROV1 ovarian, 0.0382 µM; with MOLT-4 leukemia, 0.034 µM; with NCI-H226 lung, 0.0264 µM; in the experiment on SN12C renal, 0.0554 µM; with PC-3 prostate it was 0.0164 µM.
`C=CCC12CC(=O)C=C1CCC1(C2)OCCO1` (centres undefined): the TGI in the experiment on SNB-19 CNS, in the experiment on RXF 393 renal, with IGROV1 ovarian, in the experiment with MOLT-4 leukemia, with NCI-H226 lung and in the experiment on SN12C renal was above 100 µM throughout.

These data come from PubChem BioAssay (NCI).
